Drawing on the supplement of paper PMC10307832, this text covers relative viability for 7 cell lines.

What all share (test): relative viability (nuclei count vs DMSO), 5 days (fraction); higher = more cells survive
Compound in experiment [1]: CCn1c(-c2nonc2N)nc2cnc(Oc3cccc(NC(=O)c4ccc(OCCN5CCOCC5)cc4)c3)cc21 + COc1cccc2cc(-c3nc([C@H]4CC[C@H](C(=O)O)CC4)n4ncnc(N)c34)[nH]c12 [OSI-027] (partner 0.5 µM)
In a few lines: (§1)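 A single step with final 0.05% Triton X-100, 1% formaldehyde and 1 ug/ml Hoechst fixed the cells and stained nuclei 5 days after treatment. Lung cancer cell lines in 1536-well plates had been treated by pin tool the day after seeding with one drug alone or a fixed anchor-drug dose plus five library-drug doses (not always all listed) in √10 steps, and nuclei were counted on 4× images. Relative viability is the ratio of nuclei in treated wells to nuclei in vehicle wells, taken as the median of duplicate plates.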

Compound in experiment [2]: CCn1c(-c2nonc2N)nc2cnc(Oc3cccc(NC(=O)c4ccc(OCCN5CCOCC5)cc4)c3)cc21 + NC(=O)Nc1cc(-c2cccc(F)c2)sc1C(=O)N[C@H]1CCCNC1 [AZD7762] (partner 0.2 µM)
In a few lines: as §1

Compound in experiment [3]: CCC1=CN=CN=C1N2CCN(CC2)CC3=NC4=C(N3)C=C(C=C4)C(F)(F)F + Cc1nc(Nc2ncc(C(=O)Nc3c(C)cccc3Cl)s2)cc(N2CCN(CCO)CC2)n1 [Dasatinib] (partner 0.075 µM)
In a few lines: as §1

Compound in experiment [4]: CCC1=CN=CN=C1N2CCN(CC2)CC3=NC4=C(N3)C=C(C=C4)C(F)(F)F + CC(=O)c1c(C)c2cnc(Nc3ccc(N4CCNCC4)cn3)nc2n(C2CCCC2)c1=O [Palbociclib] (partner 0.5 µM)
In a few lines: as §1

LU99A: the relative viability in experiment [1] (first compound 0.04 µM) stood at 0.298; in experiment [1] (first compound 0.1265 µM) it was 0.254; in experiment [1] (first compound 0.4 µM) it was 0.227; in experiment [1] (first compound 1.265 µM), 0.259; in experiment [1] (first compound 4 µM) it was 0.225; in experiment [2] (first compound 0.04 µM) it was 0.439. Also, the relative viability was determined as 0.436 in experiment [2] (first compound 0.1265 µM); 0.241 in experiment [2] (first compound 0.4 µM); 0.296 in experiment [2] (first compound 1.265 µM); 0.252 in experiment [2] (first compound 4 µM); 0.718 in experiment [3] (first compound 0.04 µM); 0.511 in experiment [3] (first compound 0.1265 µM). The relative viability in experiment [3] (first compound 0.4 µM) came to 0.458; in experiment [3] (first compound 1.265 µM) it was 0.602; in experiment [3] (first compound 4 µM) it was 0.7; in experiment [4] (first compound 0.04 µM), 0.428; in experiment [4] (first compound 0.1265 µM), 0.431; in experiment [4] (first compound 0.4 µM), 0.378. Moreover, the relative viability in experiment [4] (first compound 1.265 µM) turned out to be 0.439; in experiment [4] (first compound 4 µM) it was 0.435.
For LXF-289, the relative viability in experiment [1] (first compound 0.04 µM) was 0.924; in experiment [1] (first compound 0.1265 µM), 0.758; in experiment [1] (first compound 0.4 µM), 0.208; in experiment [1] (first compound 1.265 µM) it was 0.443; in experiment [1] (first compound 4 µM), 0.361; in experiment [2] (first compound 0.04 µM) it was 1.19. Further, the relative viability is 1.23 in experiment [2] (first compound 0.1265 µM); 0.638 in experiment [2] (first compound 0.4 µM); 0.506 in experiment [2] (first compound 1.265 µM); 0.224 in experiment [2] (first compound 4 µM); 0.161 in experiment [3] (first compound 0.04 µM); 0.21 in experiment [3] (first compound 0.1265 µM). The relative viability in experiment [3] (first compound 0.4 µM) was 0.242; in experiment [3] (first compound 1.265 µM), 0.191; in experiment [3] (first compound 4 µM), 0.209; in experiment [4] (first compound 0.04 µM), 0.624; in experiment [4] (first compound 0.1265 µM) it was 0.583; in experiment [4] (first compound 0.4 µM), 0.615. The relative viability in experiment [4] (first compound 1.265 µM) amounted to 0.635; in experiment [4] (first compound 4 µM) it was 0.559.
Take NCI-H23: the relative viability turned out to be 0.614 in experiment [1] (first compound 0.04 µM); 0.768 in experiment [1] (first compound 0.1265 µM); 0.249 in experiment [1] (first compound 0.4 µM); 0.534 in experiment [1] (first compound 1.265 µM); 0.525 in experiment [1] (first compound 4 µM); 0.453 in experiment [2] (first compound 0.04 µM). Further, the relative viability was determined as 0.277 in experiment [2] (first compound 0.1265 µM); 0.229 in experiment [2] (first compound 0.4 µM); 0.115 in experiment [2] (first compound 1.265 µM); 0.151 in experiment [2] (first compound 4 µM); 0.794 in experiment [3] (first compound 0.04 µM); 0.897 in experiment [3] (first compound 0.1265 µM). Moreover, the relative viability in experiment [3] (first compound 0.4 µM) amounted to 0.653; in experiment [3] (first compound 1.265 µM), 0.769; in experiment [3] (first compound 4 µM) it was 0.865; in experiment [4] (first compound 0.04 µM), 0.496; in experiment [4] (first compound 0.1265 µM) it was 0.584; in experiment [4] (first compound 0.4 µM), 0.541. For the same cell line, the relative viability stood at 0.42 in experiment [4] (first compound 1.265 µM) and 0.531 in experiment [4] (first compound 4 µM).
With NCI-H322M, the relative viability in experiment [1] (first compound 0.04 µM) came out at 0.826; in experiment [1] (first compound 0.1265 µM), 0.667; in experiment [1] (first compound 0.4 µM) it was 0.416; in experiment [1] (first compound 1.265 µM), 0.562; in experiment [1] (first compound 4 µM), 0.611; in experiment [2] (first compound 0.04 µM), 0.587. Besides, the relative viability was 0.556 in experiment [2] (first compound 0.1265 µM); 0.561 in experiment [2] (first compound 0.4 µM); 0.496 in experiment [2] (first compound 1.265 µM); 0.445 in experiment [2] (first compound 4 µM); 0.261 in experiment [3] (first compound 0.04 µM); 0.257 in experiment [3] (first compound 0.1265 µM). Also, the relative viability in experiment [3] (first compound 0.4 µM) is 0.258; in experiment [3] (first compound 1.265 µM) it was 0.239; in experiment [3] (first compound 4 µM), 0.249; in experiment [4] (first compound 0.04 µM) it was 0.455; in experiment [4] (first compound 0.1265 µM), 0.452; in experiment [4] (first compound 0.4 µM) it was 0.514. Also, the relative viability in experiment [4] (first compound 1.265 µM) was found to be 0.489; in experiment [4] (first compound 4 µM), 0.521.
In the case of NCI-H358, the relative viability in experiment [1] (first compound 0.04 µM) stood at 0.84; in experiment [1] (first compound 0.1265 µM), 0.73; in experiment [1] (first compound 0.4 µM), 0.579; in experiment [1] (first compound 1.265 µM) it was 0.816; in experiment [1] (first compound 4 µM), 0.523; in experiment [2] (first compound 0.04 µM), 0.517. The relative viability in experiment [2] (first compound 0.1265 µM) is 0.56; in experiment [2] (first compound 0.4 µM) it was 0.329; in experiment [2] (first compound 1.265 µM), 0.293; in experiment [2] (first compound 4 µM), 0.337; in experiment [3] (first compound 0.04 µM) it was 0.234; in experiment [3] (first compound 0.1265 µM), 0.147. For the same cell line, the relative viability in experiment [3] (first compound 0.4 µM) was determined as 0.179; in experiment [3] (first compound 1.265 µM), 0.14; in experiment [3] (first compound 4 µM), 0.172; in experiment [4] (first compound 0.04 µM), 0.135; in experiment [4] (first compound 0.1265 µM), 0.136; in experiment [4] (first compound 0.4 µM), 0.121. Moreover, the relative viability came to 0.128 in experiment [4] (first compound 1.265 µM) and 0.141 in experiment [4] (first compound 4 µM).
Turning to NCI-H441, the relative viability in experiment [1] (first compound 0.04 µM) came out at 0.772; in experiment [1] (first compound 0.1265 µM) it was 0.721; in experiment [1] (first compound 1.265 µM), 0.513; in experiment [1] (first compound 4 µM), 0.472; in experiment [2] (first compound 0.04 µM) it was 1.34; in experiment [2] (first compound 0.1265 µM), 1.05. The relative viability was found to be 1.21 in experiment [2] (first compound 0.4 µM); 0.961 in experiment [2] (first compound 1.265 µM); 0.698 in experiment [2] (first compound 4 µM); 0.761 in experiment [3] (first compound 0.04 µM); 0.545 in experiment [3] (first compound 0.1265 µM); 0.581 in experiment [3] (first compound 0.4 µM). The relative viability in experiment [3] (first compound 1.265 µM) came out at 0.668; in experiment [3] (first compound 4 µM) it was 0.605; in experiment [4] (first compound 0.04 µM) it was 0.205; in experiment [4] (first compound 0.1265 µM), 0.204; in experiment [4] (first compound 0.4 µM), 0.204; in experiment [4] (first compound 1.265 µM), 0.17. In addition, the relative viability in experiment [4] (first compound 4 µM) was found to be 0.257.
As to NCI-H460, the relative viability in experiment [1] (first compound 0.04 µM) came out at 0.741; in experiment [1] (first compound 0.1265 µM), 0.561; in experiment [1] (first compound 0.4 µM), 0.364; in experiment [1] (first compound 1.265 µM), 0.163; in experiment [1] (first compound 4 µM), 0.0569; in experiment [2] (first compound 0.04 µM) it was 0.712. Besides, the relative viability is 0.465 in experiment [2] (first compound 0.1265 µM); 0.148 in experiment [2] (first compound 0.4 µM); 0.0565 in experiment [2] (first compound 1.265 µM); 0.0732 in experiment [2] (first compound 4 µM); 0.583 in experiment [3] (first compound 0.04 µM); 0.467 in experiment [3] (first compound 0.1265 µM). Besides, the relative viability in experiment [3] (first compound 0.4 µM) was 0.544; in experiment [3] (first compound 1.265 µM), 0.472; in experiment [3] (first compound 4 µM), 0.541; in experiment [4] (first compound 0.04 µM), 0.145; in experiment [4] (first compound 0.1265 µM), 0.199; in experiment [4] (first compound 0.4 µM) it was 0.174. In addition, the results for the relative viability in experiment [4] (first compound 1.265 µM) and in experiment [4] (first compound 4 µM) were 0.152 and 0.166, respectively.
